Test results published in US8258114B2, “Modulation of glucose-6-phosphatase translocase expression” (Isis Pharmaceuticals, Inc., priority 2004, dated 2012).
Oligonucleotides are written 5' to 3', each unit as a sugar letter and its base; * is a phosphorothioate linkage, no mark a phosphodiester; rarer units and linkages stand in square brackets, end groups in braces. Plain capitals give the bases only. e = 2'-O-(2-methoxyethyl) (MOE); [5mC] = 5-methylcytosine; d = 2'-deoxy (DNA)

What was measured:
[1] = tested on: mouse glucose-6-phosphatase translocase mRNA; experiment: Antisense inhibition of mouse glucose-6-phosphatase translocase mRNA in primary mouse hepatocytes, 150 nM, LIPOFECTIN (Table 22); type: cell-based; conditions: real-time PCR
Experimental: Primary mouse hepatocytes were prepared from CD-1 mice purchased from Charles River Labs. Primary mouse hepatocytes were routinely cultured in Hepatocyte Attachment Media supplemented with 10% fetal bovine serum (Invitrogen Life Technologies, Carlsbad, Calif.), 250 nM dexamethasone, and 10 nM bovine insulin (Sigma-Aldrich, St. Louis, Mo.). Cells were seeded into 96-well plates (Falcon-Primaria #353872, BD Biosciences, Bedford, Mass.) at a density of approximately 4,000-6,000 cells/well for use in oligomeric compound transfection experiments.
(§1) When cells reached 65-75% confluency, they were treated with oligonucleotide. Oligonucleotide was mixed with LIPOFECTIN™ Invitrogen Life Technologies, Carlsbad, Calif.) in Opti-MEM™-1 reduced serum medium (Invitrogen Life Technologies, Carlsbad, Calif.) to achieve the desired concentration of oligonucleotide and a LIPOFECTIN™ concentration of 2.5 or 3 μg/mL per 100 nM oligonucleotide. This transfection mixture was incubated at room temperature for approximately 0.5 hours. For cells grown in 96-well plates, wells were washed once with 100 μL OPTI-MEM™-1 and then treated with 130 μL of the transfection mixture. Cells grown in 24-well plates or other standard tissue culture plates are treated similarly, using appropriate volumes of medium and oligonucleotide. Cells are treated and data are obtained in duplicate or triplicate. After approximately 4-7 hours of treatment at 37° C., the medium containing the transfection mixture was replaced with fresh culture medium. Cells were harvested 16-24 hours after oligonucleotide treatment.
(§2) Quantitation of glucose 6-phosphatase translocase mRNA levels was accomplished by real-time quantitative PCR using the ABI PRISM™ 7600, 7700, or 7900 Sequence Detection System (PE-Applied Biosystems, Foster City, Calif.) according to manufacturer's instructions.
(§3) Prior to quantitative PCR analysis, primer-probe sets specific to the target gene being measured were evaluated for their ability to be “multiplexed” with a GAPDH amplification reaction. After isolation the RNA is subjected to sequential reverse transcriptase (RT) reaction and real-time PCR, both of which are performed in the same well. RT and PCR reagents were obtained from Invitrogen Life Technologies (Carlsbad, Calif.). […] The RT reaction was carried out by incubation for 30 minutes at 48° C. Following a 10 minute incubation at 95° C. to activate the PLATINUM® Taq, 40 cycles of a two-step PCR protocol were carried out: 95° C. for 15 seconds (denaturation) followed by 60° C. for 1.5 minutes (annealing/extension).
(§4) Gene target quantities obtained by RT, real-time PCR were normalized using either the expression level of GAPDH, a gene whose expression is constant, or by quantifying total RNA using RiboGreen™ (Molecular Probes, Inc. Eugene, Oreg.). GAPDH expression was quantified by RT, real-time PCR, by being run simultaneously with the target, multiplexing, or separately. Total RNA was quantified using RiboGreen™ RNA quantification reagent (Molecular Probes, Inc. Eugene, Oreg.).
A series of oligomeric compounds was designed to target different regions of mouse glucose-6-phosphatase translocase, using published sequences cited in Table 1. All compounds in Table 22 are chimeric oligonucleotides (“gapmers”) 20 nucleotides in length, composed of a central “gap” region consisting of 10 2′-deoxynucleotides, which is flanked on both sides (5′ and 3′) by five-nucleotide “wings”. The wings are composed of 2′-O-(2-methoxyethyl) nucleotides, also known as 2′-MOE nucleotides. The internucleoside (backbone) linkages are phosphorothioate throughout the oligonucleotide. All cytidine residues are 5-methylcytidines. The compounds were analyzed for their effect on gene target mRNA levels by quantitative real-time PCR as described in other examples herein, using the following primer-probe set designed to hybridize to mouse glucose-6-phosphatase translocase: • forward primer: […]

[2] = tested on: human glucose-6-phosphatase translocase mRNA; experiment: Antisense inhibition of human glucose-6-phosphatase translocase mRNA in HepG2 cells (Table 11); type: cell-based; design: concentration or dose not given beside the values; conditions: LIPOFECTIN, mRNA by real-time PCR
Experimental: The human hepatoblastoma cell line HepG2 was obtained from the American Type Culture Collection (Manassas, Va.). HepG2 cells were routinely cultured in Eagle's MEM supplemented with 10% fetal bovine serum, 1 mM non-essential amino acids, and 1 mM sodium pyruvate (Invitrogen Life Technologies, Carlsbad, Calif.). Cells were routinely passaged by trypsinization and dilution when they reached approximately 90% confluence. Multiwell culture plates are prepared for cell culture by coating with a 1:100 dilution of type 1 rat tail collagen (BD Biosciences, Bedford, Mass.) in phosphate-buffered saline. The collagen-containing plates were incubated at 37° C. for approximately 1 hour, after which the collagen was removed and the wells were washed twice with phosphate-buffered saline. Cells were seeded into 96-well plates (Falcon-Primaria #353872, BD Biosciences, Bedford, Mass.) at a density of approximately 8,000 cells/well for use in oligomeric compound transfection experiments.
as §1, §2, §3, §4
A series of oligomeric compounds was designed to target different regions of human glucose-6-phosphatase translocase, using published sequences cited in Table 1. All compounds in Table 4 are chimeric oligonucleotides (“gapmers”) 20 nucleotides in length, composed of a central “gap” region consisting of 10 2′-deoxynucleotides, which is flanked on both sides (5′ and 3′) by five-nucleotide “wings”. The wings are composed of 2′-O-(2-methoxyethyl) nucleotides, also known as 2′-MOE nucleotides. […]

Sequence	% Inhib of mouse glucose-6-phosphatase translocase mRNA levels [1]	% Inhib [2]
ACCACACACAGTGCCCCAGA (eA*e[5mC]*e[5mC]*eA*e[5mC]*dA*d[5mC]*dA*d[5mC]*dA*dG*dT*dG*d[5mC]*d[5mC]*e[5mC]*e[5mC]*eA*eG*eA; antisense) [ISIS 145670]	45%	42%
ACCCAGAAGGCTGTGCTCCA (eA*e[5mC]*e[5mC]*e[5mC]*eA*dG*dA*dA*dG*dG*d[5mC]*dT*dG*dT*dG*e[5mC]*eT*e[5mC]*e[5mC]*eA; antisense) [ISIS 145702]	45%	74%
AGGAAGAACTGGCCCCAGTC (eA*eG*eG*eA*eA*dG*dA*dA*d[5mC]*dT*dG*dG*d[5mC]*d[5mC]*d[5mC]*e[5mC]*eA*eG*eT*e[5mC]; antisense) [ISIS 145685]	43%	71%
CAGGTTCATGCTGGTTGACA (e[5mC]*eA*eG*eG*eT*dT*d[5mC]*dA*dT*dG*d[5mC]*dT*dG*dG*dT*eT*eG*eA*e[5mC]*eA; antisense) [ISIS 145664]	50%	66%
CGCCAGCTGTAGCTCTGGGC (e[5mC]*eG*e[5mC]*e[5mC]*eA*dG*d[5mC]*dT*dG*dT*dA*dG*d[5mC]*dT*d[5mC]*eT*eG*eG*eG*e[5mC]; antisense) [ISIS 145667]	49%	54%
CTGCGCCAGCTGTAGCTCTG (e[5mC]*eT*eG*e[5mC]*eG*d[5mC]*d[5mC]*dA*dG*d[5mC]*dT*dG*dT*dA*dG*e[5mC]*eT*e[5mC]*eT*eG; antisense) [ISIS 145668]	39%	47%
GAAGGAGACAACCACACACA (eG*eA*eA*eG*eG*dA*dG*dA*d[5mC]*dA*dA*d[5mC]*d[5mC]*dA*d[5mC]*eA*e[5mC]*eA*e[5mC]*eA; antisense) [ISIS 359520]	–	42%
GAGAAACCAAATACAGCTCC (eG*eA*eG*eA*eA*dA*d[5mC]*d[5mC]*dA*dA*dA*dT*dA*d[5mC]*dA*eG*e[5mC]*eT*e[5mC]*e[5mC]; antisense) [ISIS 359540]	–	92%
GCCACCCAGAAGGCTGTGCT (eG*e[5mC]*e[5mC]*eA*e[5mC]*d[5mC]*d[5mC]*dA*dG*dA*dA*dG*dG*d[5mC]*dT*eG*eT*eG*e[5mC]*eT; antisense) [ISIS 359545]	–	65%
GCCCACCAAGTGCCAAACTG (eG*e[5mC]*e[5mC]*e[5mC]*eA*d[5mC]*d[5mC]*dA*dA*dG*dT*dG*d[5mC]*d[5mC]*dA*eA*eA*e[5mC]*eT*eG; antisense) [ISIS 145662]	19%	52%
GGAGACAACCACACACAGTG (eG*eG*eA*eG*eA*d[5mC]*dA*dA*d[5mC]*d[5mC]*dA*d[5mC]*dA*d[5mC]*dA*e[5mC]*eA*eG*eT*eG; antisense) [ISIS 145671]	25%	39%
GGATAAGGAAGAACTGGCCC (eG*eG*eA*eT*eA*dA*dG*dG*dA*dA*dG*dA*dA*d[5mC]*dT*eG*eG*e[5mC]*e[5mC]*e[5mC]; antisense) [ISIS 145686]	26%	32%
GGCATGACAAAGGAGAAGGT (eG*eG*e[5mC]*eA*eT*dG*dA*d[5mC]*dA*dA*dA*dG*dG*dA*dG*eA*eA*eG*eG*eT; antisense) [ISIS 145657]	45%	43%
GGTTCATTGTGGATGAGCAG (eG*eG*eT*eT*e[5mC]*dA*dT*dT*dG*dT*dG*dG*dA*dT*dG*eA*eG*e[5mC]*eA*eG; antisense) [ISIS 145673]	4%	47%
GTCACTGGTCACTGTTACCC (eG*eT*e[5mC]*eA*e[5mC]*dT*dG*dG*dT*d[5mC]*dA*d[5mC]*dT*dG*dT*eT*eA*e[5mC]*e[5mC]*e[5mC]; antisense) [ISIS 359534]	–	75%
GTGCTCTCCTCCTTCAAGGA (eG*eT*eG*e[5mC]*eT*d[5mC]*dT*d[5mC]*d[5mC]*dT*d[5mC]*d[5mC]*dT*dT*d[5mC]*eA*eA*eG*eG*eA; antisense) [ISIS 359527]	–	45%
GTGCTGCGCCAGCTGTAGCT (eG*eT*eG*e[5mC]*eT*dG*d[5mC]*dG*d[5mC]*d[5mC]*dA*dG*d[5mC]*dT*dG*eT*eA*eG*e[5mC]*eT; antisense) [ISIS 359517]	–	25%
TACCAGGATCCAGAGCTTGG (eT*eA*e[5mC]*e[5mC]*eA*dG*dG*dA*dT*d[5mC]*d[5mC]*dA*dG*dA*dG*e[5mC]*eT*eT*eG*eG; antisense) [ISIS 359535]	–	58%
TCACTGTTACCCGGAAGAGG (eT*e[5mC]*eA*e[5mC]*eT*dG*dT*dT*dA*d[5mC]*d[5mC]*d[5mC]*dG*dG*dA*eA*eG*eA*eG*eG; antisense) [ISIS 359532]	–	48%
TCCAGCCAGGTTCATGCTGG (eT*e[5mC]*e[5mC]*eA*eG*d[5mC]*d[5mC]*dA*dG*dG*dT*dT*d[5mC]*dA*dT*eG*e[5mC]*eT*eG*eG; antisense) [ISIS 359514]	–	37%
TCCCAATACCAGGATCCAGA (eT*e[5mC]*e[5mC]*e[5mC]*eA*dA*dT*dA*d[5mC]*d[5mC]*dA*dG*dG*dA*dT*e[5mC]*e[5mC]*eA*eG*eA; antisense) [ISIS 359536]	–	55%
TCCTTCAAGGAGCCCTTCTT (eT*e[5mC]*e[5mC]*eT*eT*d[5mC]*dA*dA*dG*dG*dA*dG*d[5mC]*d[5mC]*d[5mC]*eT*eT*e[5mC]*eT*eT; antisense) [ISIS 359525]	–	56%
TCCTTTCTCCTGGATAAGGA (eT*e[5mC]*e[5mC]*eT*eT*dT*d[5mC]*dT*d[5mC]*d[5mC]*dT*dG*dG*dA*dT*eA*eA*eG*eG*eA; antisense) [ISIS 359530]	–	59%
TCTCCTCCTTCAAGGAGCCC (eT*e[5mC]*eT*e[5mC]*e[5mC]*dT*d[5mC]*d[5mC]*dT*dT*d[5mC]*dA*dA*dG*dG*eA*eG*e[5mC]*e[5mC]*e[5mC]; antisense) [ISIS 359526]	–	54%
TCTCCTGGATAAGGAAGAAC (eT*e[5mC]*eT*e[5mC]*e[5mC]*dT*dG*dG*dA*dT*dA*dA*dG*dG*dA*eA*eG*eA*eA*e[5mC]; antisense) [ISIS 359529]	–	15%
TGTAGTGCTTGGCAATGGTG (eT*eG*eT*eA*eG*dT*dG*d[5mC]*dT*dT*dG*dG*d[5mC]*dA*dA*eT*eG*eG*eT*eG; antisense) [ISIS 359544]	–	7%
TTACCCGGAAGAGGTACATG (eT*eT*eA*e[5mC]*e[5mC]*d[5mC]*dG*dG*dA*dA*dG*dA*dG*dG*dT*eA*e[5mC]*eA*eT*eG; antisense) [ISIS 359531]	–	62%
TTCAGCCACCCAGAAGGCTG (eT*eT*e[5mC]*eA*eG*d[5mC]*d[5mC]*dA*d[5mC]*d[5mC]*d[5mC]*dA*dG*dA*dA*eG*eG*e[5mC]*eT*eG; antisense) [ISIS 359546]	–	39%
